One assay deals with T1, RXFP4 WT (Homo sapiens, UniProt Q8TDU9).
T1 construct: RXFP4(1-374)-; expressed in transfected cells; host or cells: HEK293T, transient (pCMV6)
The assay can be described thus: cAMP accumulation, WT RXFP4 (HEK293T). It counts as cell-based. The conditions noted are these: 1.5 μM forskolin, mean ± S.E.M.; for EC50: 40 min RT, TR-FRET, n = 6 to 8. The text has this:
(§1) The full-length human RXFP4 (NCBI Reference Sequence: NM_181885.3) was cloned into a modified pFastBac vector (Invitrogen) with HA signal peptide to enhance receptor expression, followed by a 10× histidine tag and BRIL insertion at the N terminus. LgBiT subunit (Promega) was fused at the C terminus of RXFP4 connected by a 15-amino acid polypeptide linker. […] The engineered human Gαi2, Gβ1, bovine Gγ2, and scFv16 were cloned into the pFastBac vector (Invitrogen), respectively. For cAMP accumulation assay, human RXFP4 and RXFP3 (NCBI Reference Sequence: NM_016568.3) were cloned into pCMV6 constructs (OriGene Technologies). The mutant receptors were modified by site-directed mutagenesis in the setting of the WT constructs, with the primers designed by QuikChange Primer Design [QuickChange Primer Design (http://agilent.com.cn)] and carried out using Phanta Max Master (Vazyme). N-terminal Flag tag was added to both WT and mutant receptors for surface expression measurement. Sequences of all primers used in this study were provided in Supplementary Table 6, and all the constructs were confirmed by DNA sequencing.
(§2) CHO-K1 (ATCC, Cat#CCL-61) cells stably expressing human RXFP4 (hRXFP4-CHO) or RXFP3 (hRXFP3-CHO) were maintained in DMEM/F12 (Gibco) supplemented with 10% (v/v) fetal bovine serum (FBS) and 2 mM L-glutamine. Human embryonic kidney 293 T cells containing SV40 large T-antigen (HEK293T, ATCC, Cat#64127316) were maintained in DMEM (Gibco) supplemented with 10% (v/v) FBS, 1 mM sodium pyruvate (Gibco), 100 units/mL penicillin and 100 μg/mL streptomycin at 37 °C in 5% CO2. For cAMP assays in mutants, HEK293T cells were seeded onto 6-well cell culture plates at a density of 7 × 10^5 cells per well. […] Following 24 h culturing, the transfected cells were ready for detection.
(§3) Ligands were verified for their bioactivity in the beginning in hRXFP4-CHO, which were ready for use after 24 h culturing. […] The time-resolved fluorescence resonance energy transfer (TR-FRET) signals were detected by an EnVision multilabel plate reader (PerkinElmer) with the emission window ratio of 665 nm over 620 nm under 320 nm excitation. […]
(§4) Inhibition of forskolin-induced cAMP accumulation was performed in HEK293T cells transiently transfected with WT and mutant receptors. All the mutant constructs were modified by single-point mutation in the setting of the WT receptor. cAMP accumulation data were analyzed using a three-parameter logistic equation to determine pEC50 and Emax values. Emax values for mutants are defined as the window between the maximal response and vehicle control (no ligand) and expressed as a percentage of the WT. Cell surface expression was assessed by flow cytometry to detect the N-terminal Flag epitope label on the receptors and normalized to the WT receptor (shown as percentage). […]
A general note: Cyclic AMP is a second messenger, typically raised through Gs and lowered through Gi signalling.

In another assay the target is T2, RXFP4 F105A (Homo sapiens, UniProt Q8TDU9, F105A).
T2 construct: RXFP4(1-374)-; expressed in transfected cells; host or cells: HEK293T, transient (pCMV6)
T2 sequence (Q8TDU9 whole entry F105A): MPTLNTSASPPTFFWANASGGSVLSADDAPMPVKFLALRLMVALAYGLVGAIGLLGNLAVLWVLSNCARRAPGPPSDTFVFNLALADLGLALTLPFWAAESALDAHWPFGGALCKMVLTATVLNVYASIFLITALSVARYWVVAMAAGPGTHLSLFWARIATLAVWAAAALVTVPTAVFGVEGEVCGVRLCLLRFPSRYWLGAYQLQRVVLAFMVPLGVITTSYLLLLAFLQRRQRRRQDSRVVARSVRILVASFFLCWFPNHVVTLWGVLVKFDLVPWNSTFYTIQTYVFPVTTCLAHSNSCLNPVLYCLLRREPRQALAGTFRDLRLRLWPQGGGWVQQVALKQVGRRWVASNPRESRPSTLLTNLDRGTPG
Briefly: cAMP accumulation, RXFP4 F105A. Type of assay: cell-based.
Description: as §1
(§5) CHO-K1 (ATCC, Cat#CCL-61) cells stably expressing human RXFP4 (hRXFP4-CHO) or RXFP3 (hRXFP3-CHO) were maintained in DMEM/F12 (Gibco) supplemented with 10% (v/v) fetal bovine serum (FBS) and 2 mM L-glutamine. Human embryonic kidney 293 T cells containing SV40 large T-antigen (HEK293T, ATCC, Cat#64127316) were maintained in DMEM (Gibco) supplemented with 10% (v/v) FBS, 1 mM sodium pyruvate (Gibco), 100 units/mL penicillin and 100 μg/mL streptomycin at 37 °C in 5% CO2. For cAMP assays in mutants, HEK293T cells were seeded onto 6-well cell culture plates at a density of 7 × 10^5 cells per well. After overnight incubation, cells were transfected with WT or mutant receptors using Lipofectamine 3000 transfection reagent (Invitrogen). Following 24 h culturing, the transfected cells were ready for detection.
(§6) Ligands were verified for their bioactivity in the beginning in hRXFP4-CHO, which were ready for use after 24 h culturing. For assaying mutants, HEK293T cells were used 24 h post transfection. Cells were digested with 0.02% (w/v) EDTA and seeded onto 384-well microtiter plates at a density of 8 × 10^5 cells/mL in cAMP stimulation buffer [HBSS supplemented with 5 mM HEPES, 0.1% (w/v) bovine serum albumin (BSA) and 0.5 mM 3-isobutyl-1-methylxanthine]. The cells were stimulated with different concentrations of ligands plus 1.5 μM forskolin in RXFP4 and 4 μM forskolin in RXFP3. […] The time-resolved fluorescence resonance energy transfer (TR-FRET) signals were detected by an EnVision multilabel plate reader (PerkinElmer) with the emission window ratio of 665 nm over 620 nm under 320 nm excitation. […]
as §4

The target of another assay is T3, RXFP4 K273A (Homo sapiens, UniProt Q8TDU9, K273A).
T3 construct: RXFP4(1-374)-; expressed in transfected cells; host or cells: HEK293T, transient (pCMV6)
T3 sequence (Q8TDU9 whole entry K273A): as the sequence (Q8TDU9 whole entry F105A) above, with A105F, K273A counted along it
The assay can be described thus: cAMP accumulation, RXFP4 K273A. Type of assay: cell-based.
Description: as §1, §2, §3, §4

Assay [1] deals with T4, human RXFP4 (Homo sapiens, UniProt Q8TDU9).
T4 construct: expressed in transfected cells
T4 sequence (Q8TDU9 whole entry): as the sequence (Q8TDU9 whole entry F105A) above, with A105F counted along it
The assay can be described thus: competitive Eu-R3/I5 binding, RXFP4. As for the experimental part: CHO-K1 cells stably transfected with RXFP3 or RXFP4 were plated onto pre-coated poly-L-lysine 96-well plates. The competitive binding assays were performed with 5 nM Eu-H3 B1-22R (RXFP3) or Eu-R3/I5 (RXFP4) in the presence of increasing amounts of ligands as previously described[21],[86],[87]. Time-resolved fluorescence measurements were carried out at an excitation wavelength of 340 nm and an emission wavelength of 614 nm on a BMG POLARstar plate reader (BMG Labtech, Melbourne, Australia). Binding was performed in at least three independent experiments with triplicate determinations within each assay. Data are presented as means ± S.E.M. of specific binding and were fitted using a one-site binding curve in Prism software (GraphPad).
(§7) All functional study data were analyzed using GraphPad Prism 8.3 (GraphPad Software) and presented as means ± S.E.M. from at least three independent experiments. Dose-response curves were evaluated with a three-parameter logistic equation. The significance was determined with either a two-tailed Student’s t-test or one-way ANOVA with Dunnett’s multiple comparison test, and P < 0.05 was considered statistically significant.

For a further assay, the target named is T5, RXFP4 T295V (Homo sapiens, UniProt Q8TDU9, T295V).
T5 construct: RXFP4(1-374)-; expressed in transfected cells; host or cells: HEK293T, transient (pCMV6)
T5 sequence (Q8TDU9 whole entry T295V): as the sequence (Q8TDU9 whole entry F105A) above, with A105F, T295V counted along it
The assay can be described thus: cAMP accumulation, RXFP4 T295V. Type of assay: cell-based.
Description: as §1, §2, §3, §4

Assay [2] deals with T4, human RXFP4. Briefly: inhibition of forskolin-induced cAMP accumulation, WT RXFP4 (hRXFP4-CHO). It counts as cell-based. Here is the method: as §5, §6, §7
The next assay concerns the target T6, RXFP4 H299A (Homo sapiens, UniProt Q8TDU9, H299A).
T6 construct: RXFP4(1-374)-; expressed in transfected cells; host or cells: HEK293T, transient (pCMV6)
The assay can be described thus: cAMP accumulation, RXFP4 H299A. It counts as cell-based.
Description: as §1, §5, §6, §4

In a further assay the target is T7, RXFP4 W97A (Homo sapiens, UniProt Q8TDU9, W97A).
T7 construct: RXFP4(1-374)-; expressed in transfected cells; host or cells: HEK293T, transient (pCMV6)
T7 sequence (Q8TDU9 whole entry W97A): as the sequence (Q8TDU9 whole entry F105A) above, with W97A, A105F counted along it
Briefly: cAMP accumulation, RXFP4 W97A. It counts as cell-based.
Description: as §1, §5, §6, §4

The target of the next assay is T8, RXFP4 L118S+V122S (Homo sapiens, UniProt Q8TDU9, L118S/V122S).
T8 construct: RXFP4(1-374)-; expressed in transfected cells; host or cells: HEK293T, transient (pCMV6)
T8 sequence (Q8TDU9 whole entry L118S/V122S): as the sequence (Q8TDU9 whole entry F105A) above, with A105F, L118S, V122S counted along it
Briefly: cAMP accumulation, RXFP4 L118S+V122S. It counts as cell-based. The note with it: HEK293T.
Description: as §1, §2, §3, §4

The mark [3] stands for this setting: HEK293T, 1.5 μM forskolin, mean ± S.E.M., n = 3, N.A., not active, read-out: pEC50 (converted).

Where “and” joins values, the source holds several entries; their conditions need not be identical. Identical values can stand only once. Like-named read-outs stand apart in the source and are kept apart here.

The source of these data is article PMC9886975, “Ligand recognition mechanism of the human relaxin family peptide receptor 4 (RXFP4)” (Nature Communications, 2023).

T1 sequence (Q8TDU9 whole entry): as the sequence (Q8TDU9 whole entry F105A) above, with A105F counted along it
T6 sequence (Q8TDU9 whole entry H299A): as the sequence (Q8TDU9 whole entry F105A) above, with A105F, H299A counted along it

For the compound `CCOc1cc2c(cc1OC)CCN(C(=O)N1CCOCC1)[C@H]2CCc1c[nH]c2ccc(OC)cc12` [DC591053, (S)-(7-ethoxy-6-methoxy-1-(2-(5-methoxy-1H-indol-3-yl)ethyl)−3,4-dihydroisoquinolin-2(1H)-yl)(morpholino)methanone], the EC50 on RXFP4 WT (HEK293T, read-out: pEC50 (converted)) is 34.7 nM; at RXFP4 F105A (HEK293T, 1.5 μM forskolin, mean ± S.E.M., n = 3, read-out: pEC50 (converted)) it was 170 nM; at RXFP4 K273A (HEK293T, 1.5 μM forskolin, mean ± S.E.M., n = 3 or 4, read-out: pEC50 (converted)), 1860 nM; at RXFP4 T295V (HEK293T, 1.5 μM forskolin, mean ± S.E.M., n = 3 to 5, read-out: pEC50 (converted)), 64.6 nM; on human RXFP4 [2] (stably-transfected CHO-K1, 1.5 μM forskolin, 40 min RT, TR-FRET, mean ± S.E.M., n = 3, read-out: pEC50 (converted)) it was 57.5 nM; on RXFP4 H299A (setting [3]), 3.63 nM. The EC50 at RXFP4 W97A (setting [3]) is 56.2 nM; at RXFP4 L118S+V122S (1.5 μM forskolin, mean ± S.E.M., n = 3, N.A., not active) it was 724 nM. Further, the Emax at RXFP4 WT (HEK293T) turned out to be 97.18 ± 3.11 % WT; at RXFP4 F105A (HEK293T, mean ± S.E.M.) it was 57.39 ± 4.17 % WT; on RXFP4 K273A (HEK293T, mean ± S.E.M.) it was 68.51 ± 8.34 % WT; on RXFP4 T295V (HEK293T, mean ± S.E.M.) it was 30.00 ± 4.54 % WT; on RXFP4 H299A (HEK293T, mean ± S.E.M.) it was 36.04 ± 4.01 % WT; on RXFP4 W97A (HEK293T, mean ± S.E.M.) it was 108.65 ± 10.04 % WT. Moreover, the Emax at RXFP4 L118S+V122S (mean ± S.E.M.) was found to be 84.85 ± 8.36 % WT. Moreover, the “decrease of potency vs WT” value on RXFP4 F105A (HEK293T) is 4.9 fold; on RXFP4 W97A (HEK293T), 1.6 fold; on RXFP4 L118S+V122S, 20.9 fold. Moreover, on human RXFP4 [1] (stably-transfected CHO-K1, 5 nM Eu-R3/I5, mean ± S.E.M., n = 3, read-out: pKi (converted)), the Ki is 112 nM. Also, the “agonism” value at human RXFP4 [2] (stably-transfected CHO-K1) is given as “full agonism”. The “reduction of Emax vs WT” value at RXFP4 H299A (HEK293T) is on record as 65%.
On to `CC[C@H](C)[C@@H]1NC(=O)[C@H](Cc2ccc(O)cc2)NC(=O)[C@H]([C@@H](C)CC)NC(=O)[C@H](C(C)C)NC(=O)[C@H]([C@@H](C)O)NC(=O)[C@H](CCCNC(=N)N)NC(=O)[C@H]([C@@H](C)CC)NC(=O)[C@H](Cc2ccc(O)cc2)NC(=O)[C@H](CCC(=O)O)NC(=O)[C@H](CC(C)C)NC(=O)CNC(=O)[C@@H](NC(=O)[C@H](CC(C)C)NC(=O)[C@H](CCCNC(=N)N)NC(=O)[C@@H](NC(=O)[C@H](CO)NC(=O)[C@H](CCC(=O)O)NC(=O)[C@@H](N)CCCCN)C(C)C)CSSC[C@@H]2NC(=O)[C@@H](NC(=O)[C@H](CC(C)C)NC(=O)[C@@H](NC(=O)[C@H](CCC(N)=O)NC(=O)[C@H](CC(C)C)NC(=O)[C@H](CC(=O)O)NC(=O)[C@@H](N)CCC(N)=O)[C@@H](C)O)CSSC[C@H](NC(=O)CNC(=O)[C@H](CC(=O)O)NC(=O)[C@H]([C@@H](C)O)NC2=O)C(=O)N[C@@H](CO)C(=O)N[C@@H](CCSC)C(=O)N[C@@H]([C@@H](C)O)C(=O)N[C@@H](CC(=O)O)C(=O)N[C@@H](CC(C)C)C(=O)N[C@@H](CO)C(=O)N[C@@H](C)C(=O)N[C@@H](CC(C)C)C(=O)N[C@H](C(=O)O)CSSC[C@@H](C(=O)N[C@@H](C)C(=O)N[C@@H](CO)C(=O)N[C@@H](CO)C(=O)N[C@@H](CCCNC(=N)N)C(=O)N[C@@H](Cc2c[nH]c3ccccc23)C(=O)O)NC1=O` [INSL5, insulin-like peptide 5], for which the Emax at RXFP4 WT (HEK293T) was 99.88 ± 2.28 % WT and 98.86 ± 3.65 % WT; on RXFP4 F105A (HEK293T, mean ± S.E.M.), 80.16 ± 4.08 % WT; on RXFP4 K273A (HEK293T, mean ± S.E.M.), 58.10 ± 7.38 % WT; at RXFP4 T295V (HEK293T, mean ± S.E.M.), 91.17 ± 6.47 % WT; at RXFP4 H299A (HEK293T, mean ± S.E.M.), 30.77 ± 3.77 % WT; on RXFP4 W97A (HEK293T, mean ± S.E.M.) it was 61.33 ± 5.34 % WT. Moreover, the EC50 was 0.759 nM and 0.955 nM at RXFP4 WT (pEC50, HEK293T); 10 nM on RXFP4 F105A; 3.55 nM on RXFP4 K273A; 0.692 nM at RXFP4 T295V; 1.58 nM on human RXFP4 [2]; 0.955 nM on RXFP4 H299A. The same compound had an EC50 at RXFP4 W97A of 15.5 nM. In addition, the Ki on human RXFP4 [1] was 6.46 nM. In addition, at RXFP4 L118S+V122S, the “response” value is “inactive”.
